Test results: US7732134B2, “Methods to predict cholesterol elevation during immunosuppressant therapy” (Novartis AG, priority 2002, dated 2010)

Assays:
[1] = RAD B251 clinical trial: LDL cholesterol levels by IL-1β genotype and treatment group; format: in vivo, human; conditions: last visit
Excerpt: (§1) The RAD B251 study was a randomized, multicenter, double-blind, parallel group study of the efficacy and safety of everolimus (Certican™) (RAD) versus mycophenolate mofetil (MMF) used in combination with cyclosporine (CsA) (NEORAL®) and prednisone. The study consisted of three periods: a Screening period, a Baseline period and a Double-Blind Treatment period. Following the Baseline assessments, patients who meet the inclusion/exclusion criteria were randomized into one of the three treatment groups (1:1:1) once it has been ascertained that the allograft is functional and that oral medication can be tolerated (within 48 hours post-transplantation). Determination of allograft function was by the investigator's judgement and was based upon adequate urine output and evidence of falling creatinine levels. The day of randomization and administration of the first dose of study medication was recorded as Day 1 of the study. The three treatment groups are described below: • Dose Level 1: 0.75 mg RAD bid+NEORAL®+prednisone • Dose Level 2: 1.5 mg RAD bid+NEORAL®+prednisone • Comparator 1 g MMF bid+NEORAL®+prednisone Concomitant Therapy Initiation and Maintenance of NEORAL®
(§2) A treatment period of three years followed transplantation. […] Renal biopsies were required at Baseline (may be intra-operative) and at the time of any suspected rejection. Blinded study drug administration ceased at 3 years.
(§3) Male and female patients, 16-65 years of age who are scheduled to undergo primary cadaveric, living unrelated or non-HLA identical related donor kidney transplantation, were allowed to enter the study. Patients who discontinued the study prematurely were not replaced. Each patient had to meet all of the inclusion/exclusion criteria to be eligible for entry into the study.
(§4) A total of 82 unique samples from the RAD B251 clinical trial were genotyped upon their consent to participate in the pharmacogenetic evaluation. This represents about 15% of the total population that participated in the RAD B251 clinical trial. Blood samples from each patient were collected at the individual trial sites and then shipped to Covance (Geneva, Switzerland). The genomic DNA of each patient was extracted from the blood by Covance using the PUREGENE™ DNA Isolation Kit (D-50K) (Gentra, Minneapolis, Minn.).
(§5) An analysis of covariance model was used for the analysis of the effect of genotype and treatment on cholesterol levels using the 24-month lab_b.sd2 RADB 251 clinical data set. Terms in the model include the final cholesterol level, the initial cholesterol level as the covariant, and the genotype and treatment as the main effectors. The odds ratios, 95% confidence limits, and Chi-square analysis were calculated where applicable. All statistical analyses were performed using the SAS 8.02 software. To correct for multiple testing, the Bonferroni correction method was performed.

[2] = RAD B251 clinical trial: HDL cholesterol levels by IL-1β genotype and treatment group; format: in vivo, human; conditions: last visit
Excerpt: as §1, with “The three treatment groups are described below: • Dose Level 1: 0.75 mg RAD bid+NEORAL®+prednisone • Dose Level 2: 1.5 mg RAD bid+NEORAL®+prednisone • Comparator 1 g MMF bid+NEORAL®+prednisone Concomitant Therapy Initiation and Maintenance of NEORAL®” left out
as §2, §3, §4, §5

[3] = RAD B251 clinical trial: total cholesterol levels by IL-1β genotype and treatment group; format: in vivo, human; conditions: for LS Mean Total Cholesterol Levels: RAD (1.5 and 3.0 mg/day), last visit; for odds ratio for increase in total blood cholesterol levels to a final concentration ≧240 mg/dL: RAD/NEORAL® regimen
Excerpt: The RAD B251 study was a randomized, multicenter, double-blind, parallel group study of the efficacy and safety of everolimus (Certican™) (RAD) versus mycophenolate mofetil (MMF) used in combination with cyclosporine (CsA) (NEORAL®) and prednisone. The study consisted of three periods: a Screening period, a Baseline period and a Double-Blind Treatment period. […] Determination of allograft function was by the investigator's judgement and was based upon adequate urine output and evidence of falling creatinine levels. The day of randomization and administration of the first dose of study medication was recorded as Day 1 of the study. […]
as §2, §3
(The values on the figures, etc. refer to the absolute serum cholesterol levels at the last visit, however during the statistical analysis this value was defined as the dependent variable and the cholesterol level at baseline as the independent variable thus automatically taking into consideration the baseline level).
as §4, with “Switzerland).” for “Switzerland). The genomic DNA of each patient was extracted from the blood by Covance using the PUREGENE™ DNA Isolation Kit (D-50K) (Gentra, Minneapolis, Minn.).”
as §5, with “performed. […]” for “performed.”

cholesterol biosynthesis = conditions: See El-Omar et al.; cited from earlier work
[4] = (−31) IL-1β CC genotype, MMF (2 mg/day)
[5] = (−31) IL-1β CT genotype, MMF (2 mg/day)
[6] = (−31) IL-1β TT genotype, MMF (2 mg/day)
[7] = (−511) IL-1β CC genotype, MMF (2 mg/day)
[8] = (−511) IL-1β CT genotype, MMF (2 mg/day)
[9] = (−511) IL-1β TT genotype, MMF (2 mg/day)
[10] = (−31) IL-1β CC genotype, RAD (1.5 and 3.0 mg/day)
[11] = (−31) IL-1β CT genotype, RAD (1.5 and 3.0 mg/day)
[12] = (−31) IL-1β TT genotype, RAD (1.5 and 3.0 mg/day)
[13] = (−511) IL-1β CC genotype, RAD (1.5 and 3.0 mg/day)
[14] = (−511) IL-1β CT genotype, RAD (1.5 and 3.0 mg/day)
[15] = (−511) IL-1β TT genotype, RAD (1.5 and 3.0 mg/day)

COc1c(C)c2c(c(O)c1C/C=C(\C)CCC(=O)OCCN1CCOCC1)C(=O)OC2 [MMF, mycophenolate mofetil]
LS Mean LDL Levels [1, 4]: 143.1 mg/dL | LS Mean LDL Levels [1, 5]: 119.8 mg/dL | LS Mean LDL Levels [1, 6]: 107.8 mg/dL | LS Mean LDL Levels [1, 7]: 113.9 mg/dL | LS Mean LDL Levels [1, 8]: 118.6 mg/dL | LS Mean LDL Levels [1, 9]: 143.7 mg/dL | LS Mean HDL levels [2, 4]: 50.4 mg/dL | LS Mean HDL levels [2, 5]: 56.8 mg/dL | LS Mean HDL levels [2, 6]: 45.5 mg/dL | LS Mean HDL levels [2, 7]: 45.5 mg/dL | LS Mean HDL levels [2, 8]: 56.8 mg/dL | LS Mean HDL levels [2, 9]: 50.4 mg/dL

CO[C@H]1C[C@@H]2CC[C@@H](C)[C@@](O)(O2)C(=O)C(=O)N2CCCC[C@H]2C(=O)O[C@H]([C@H](C)C[C@@H]2CC[C@@H](OCCO)[C@H](OC)C2)CC(=O)[C@H](C)/C=C(\C)[C@@H](O)[C@@H](OC)C(=O)[C@H](C)C[C@H](C)/C=C/C=C/C=C/1C [RAD, everolimus]
LS Mean LDL Levels [1, 10]: 145.1 mg/dL | LS Mean LDL Levels [1, 11]: 124.1 mg/dL | LS Mean LDL Levels [1, 12]: 112.2 mg/dL | LS Mean LDL Levels [1, 13]: 112.5 mg/dL | LS Mean LDL Levels [1, 14]: 123.6 mg/dL | LS Mean LDL Levels [1, 15]: 144.5 mg/dL | LS Mean HDL levels [2, 10]: 65.1 mg/dL | LS Mean HDL levels [2, 11]: 55 mg/dL | LS Mean HDL levels [2, 12]: 48.4 mg/dL | LS Mean HDL levels [2, 13]: 47.6 mg/dL | LS Mean HDL levels [2, 14]: 54.9 mg/dL | LS Mean HDL levels [2, 15]: 68.4 mg/dL | LS Mean Total Cholesterol Levels ([3]; (−31) IL-1β CC genotype): 291.1 mg/dL | LS Mean Total Cholesterol Levels ([3]; (−31) IL-1β CT genotype): 240.4 mg/dL | LS Mean Total Cholesterol Levels ([3]; (−31) IL-1β TT genotype): 216.6 mg/dL | LS Mean Total Cholesterol Levels ([3]; (−511) IL-1β CC genotype): 217.3 mg/dL | LS Mean Total Cholesterol Levels ([3]; (−511) IL-1β CT genotype): 242.9 mg/dL | LS Mean Total Cholesterol Levels ([3]; (−511) IL-1β TT genotype): 290.3 mg/dL | odds ratio for increase in total blood cholesterol levels to a final concentration ≧240 mg/dL ([3]; patients with a C at position (-31) in the IL-1β gene promoter (CC-CT vs TT)): 7.23 | odds ratio for increase in total blood cholesterol levels to a final concentration ≧240 mg/dL ([3]; patients with a T at position (-511) in the IL-1β gene promoter (CT-TT vs CC)): 5.67

IL-1β: interleukin-1-beta, cytokine reported to inhibit cholesterol biosynthesis
inhibition of cholesterol biosynthesis (cholesterol biosynthesis): 25%
